Reference: US20160280788A1, “USE OF ANTIBODIES AGAINST ICAM-1 IN THE TREATMENT OF PATIENTS WITH RELAPSED CANCER” (BioInvent International AB, priority 2010, published 2016)

Columns and labels:
[1] = test system: ICAM-1 on RPMI-8226 tumor cells; assay: ICAM-1 expression on MM cells isolated from treated mice (flow cytometry); assay type: in vivo, SCID mice; conditions: disseminated RPMI-8226 model, cells collected at termination
Procedure: Organs for FACS analysis were collected at scarification of mice, and cells from tissues were prepared by mechanistic dissociation and dispase/collagenase enzymatic digestion (Gibco, France). Cells were stained with anti-human CD38 antibody (PerCP-Cy5, Becton Dickinson), an anti-mouse CD45 (PE, Becton Dickinson) and human ICAM-1 (BI-505 IgG1 AF647, BioInvent) and incubated in the dark for 15 min at room temperature. After the incubation, cells were washed twice and the surface fluorescence of cells was analyzed with a flow cytometer apparatus (LSRII) at the Flow Cytometry Facility of the University of Burgundy.
The health status and behavior of mice was recorded every day and body weight of mice was recorded twice a week. […] Upon termination, bone marrow, spinal cord, adrenal glands and kidneys were collected and examined for ICAM-1 expression on tumor cells. To distinguish cells of human versus murine origin, an anti-mouse CD45 mAb was used CD45. […] In addition, cells were stained with AF647 conjugated anti ICAM-1 mAb and thereafter analyzed in a FACS LSRII. Bone marrow was mechanically dissociated to a single cell suspension whereas adrenal glands, kidneys and spinal cord cells were prepared using a combination of mechanistic dissociation and dispase/collagenase digestion (Gibco, France). Prior to the experiment, dispase and collagenase treatments were shown not to effect ICAM-1 levels on MM cell lines.

[2] = test system: HUVEC and HMVEC endothelial cells; assay: PCD in normal endothelial cells; assay type: cell-based; conditions: resting or activated (IFN-γ) cells
Procedure: Target cells were seeded in 96-well culture plates at a density of 2×10^6 cells/mL culture medium. Titrated concentrations of IgG1 B11 or different negative and positive control antibodies were added to the cells, in the absence or presence of anti-human Fab fragment (Jackson ImmunoResearch) for cross-linking. The cells were then incubated for 16 hours at 37° C. in a humidified atmosphere of 5% CO2. The cells were harvested and stained for Annexin V-488/Propidium Iodide (Invitrogen, Sweden) and analysed using flow cytometer (FACS Calibur, BD Bioscience).

ARH-77 cells [3] = assay: Disseminated scid/ARH-77 model of multiple myeloma; assay type: in vivo, scid mice; conditions: i.v. on Days 7, 10, 13, 16; antibody 2 mg/kg, bortezomib 0.5 mg/kg; vs control
Procedure: ARH-77 cells or RPMI-8226 were injected intraveniously into the SCID mice. (FIG. 6A) ARH-77 model. Animals received intravenous injections with antibody at 2 mg/kg or bortezomib (Velcade) at 0.5 mg/kg on Days 7, 10, 13, and 16 (as indicated by arrows in the graph). (FIG. 6B) RPMI-8226-model. BI-505 or control mAb was administered i.v at 2 mg/kg, twice weekly for 8 weeks, bortezomid, at 1 mg/kg, once weekly for 8 weeks, lenalidomide p.o with 2 mg/kg for 2 cycles consisting of 5 days of treatment and 2 days of wash out, melphalan i.v at 3 mg/kg, once weekly for 8 weeks, and dexamethasone (DXH) at 6 mg/kg/inj 3 times/week for 2 consecutive weeks. There were 6-10 mice per treatment group. Statistical significance was calculated using Log-rank Graphpad Prism software and determined at ***p<0.001. (FIG. 6C) To study the ICAM-1 level on human cells, the cells from different organs were stained and gated for CD38+/mCD45−/BI-505+. Left panel indicates the percentage of BI-505 positive cells in CD38+/mCD45 population and right panel the mean fluorescent intensity of the positive cells.
The anti-myeloma effect of BI-505 was examined in a disseminated model of multiple myeloma. The early and advanced disseminated model of multiple myeloma was performed at Oncodesign, Dijon, France. Briefly: 1×10^6 (early) or 5×10^6 (advanced) ARH-77 tumor cells in 200 μL of RPMI 1640 were injected intravenously (i.v) into the caudal vein of female scid mice (D0). Tumor cell injections were performed twenty four to forty eight hours after a whole body irradiation of mice (1.8 Gy, ^60Co, INRA, BRETENNIERES). The treatment was started at D5 (RPMI-8226 model) or D7 ([…] model) except alkeran which was administered at D10. B11 or control mAb was administered i.v. at 2 mg/kg, twice weekly for 8 weeks, bortezomib, at 1 mg/kg, once weekly for 8 weeks, lenalidomide p.o with 2 mg/kg for 2 cycles consisting of 5 days of treatment and 2 days of wash out, melphalan i.v. at 3 mg/kg, once weekly for 8 weeks and dexamethasone at 6 mg/kg, injected 2 consecutive weeks.
The disseminated model of scid/ARH-77 is a well-established experimental model that resembles human multiple myeloma disease progression and disease manifestation in many respects (33). We utilized this model to further characterize IgG B11 anti-myeloma activity (FIG. 6A). Intravenous injection of irradiated scid mice with 1×10^6 ARH-77 cells was previously shown to result in their dissemination and establishment in mouse bone-marrow, and resulting osteolytic bone-lesions and hypercalcemia, and ultimately, in animal paralysis or difficulty of breathing at which time animals were immediately sacrificed. […]

ARH-77 cells [4] = assay: Subcutaneous scid/ARH-77 xenograft, prophylactic model; conditions: 20 mg/kg twice weekly i.p., commencing one day after tumor cell inoculation
Procedure: Tumor cells were injected subcutaneously into the left flank of SCID mice. Mice received twice-weekly intraperitoneal injections with BI-505, control antibody or rituximab at doses of 20, 2 and/or 0.2 mg/kg commencing one day after tumor cell inoculation. There were 8 to 10 animals per treatment group. […] Statistical significance was calculated relative to control antibody treatment using Kruskal-Wallis Test (Nonparametric ANOVA) with Dunn's Multiple Comparisons Test (tumor volume) or the log-rank test (mouse survival) using Graphpad Instat or Prism software, respectively. Statistical significance was considered for *p<0.05, **p<0.01, and ***p<0.001.
Tumor cells were injected subcutaneously into the left flank of SCID mice. Mice received twice-weekly intraperitoneal injections with BI-505 at doses of 0.02-20 mg/kg commencing day after tumor cell inoculation. There were 8-10 animals per treatment group. […] Statistical significance was calculated relative to control antibody treatment using Kruskal-Wallis Test (Nonparametric ANOVA) with Dunn's Multiple Comparisons Test (tumor volume) or the log-rank test (mouse survival) using Graphpad Instat or Prism software, respectively. Statistical significance was considered for *p<0.05, **p<0.01, and ***p<0.001. Graphs illustrate representative experiments out of several performed.
(FIG. 7A) ARH-77 cells were injected subcutaneously into the left flank of SCID mice (n=8 per group). Mice were treated with the different BI-505 isotypes twice weekly. […] Statistical significance was calculated relative to control antibody treatment using Kruskal-Wallis Test (Nonparametric ANOVA) with Dunn's Multiple Comparisons Test. Statistical significance was considered for *p<0.05, **p<0.01, and ***p<0.001.
Mice were anaesthetized with a mixture of sevofluran and oxygen prior to myeloma cell inoculation and 1-5×10^6 myeloma cells were then subcutaneously injected in a volume of 100 μl into the left flank.

[5] = test system: ICAM-1 expressing tumor cell lines; assay: Complement-dependent cytotoxicity in tumor cell lines; assay type: cell-based; conditions: panel of ICAM-1 expressing tumor cell lines; human serum
Procedure: Target cells were harvested and incubated in RPMI medium with antibodies at 5 μg/mL or at titrated concentrations between 0.01-100 μg/mL for 60 min on ice. Cells were thereafter washed and resuspended in cold medium before dispension into flow cytometry tubes. Treatments were performed in triplicates. Human serum, normal or heat-inactivated, (Sigma, Sweden) was added to tubes and the samples were incubated for 2 h at 37° C. After completed incubation ToPo-Pro-3 was added at a final concentration of 0.3 μM and cells were analyzed for membrane permeabilization using flow cytometry.

ARH-77 tumors = assay: Subcutaneous scid/ARH-77 xenograft, established (palpable tumor) model; conditions: IgG B11 even at 0.2 mg/kg (100-fold lower dose than rituximab)
Procedure: Mice were anaesthetized with a mixture of sevofluran and oxygen prior to myeloma cell inoculation and 1-5×10^6 myeloma cells were then subcutaneously injected in a volume of 100 μl into the left flank. Treatment with antibodies by intraperitonial (i.p.) injections was started either the day after cell inoculation (prophylactic model) or when tumors reached a size of approximately 100 mm^3 (established model). Antibodies were administrated in PBS in a total volume of 200 μL. Treatment with PBS or isotype control was used as control. Tumors were measured with a digital calliper and the tumor volumes were calculated according to formula: width^2×length×0.52. Animals were sacrificed when the tumor sizes reached the ethical limit of 1.5 cm. Surviving mice were sacrificed after a maximum of 5 months. Blood samples collected from the vena cava were centrifuged at 2500 g for 15 min to obtain serum and the samples were stored at −20° C. Tumors were removed for immunohistochemistry, snap frozen and were kept at −85° C.

[6] = Mouse serum antibody levels by ELISA at end of xenograft experiment; assay type: in vivo; conditions: dose 2 mg/kg; mouse serum at end of experimentation
Procedure: We next performed a dose-titration experiment to establish IgG B11 in vivo potency and the minimal dose achieving maximal anti-tumor activity, using the scid/ARH-77 model system. […] Mouse serum antibody trough concentrations were determined by ELISA at the end of experimentation. Trough antibody concentrations were then plotted against percent of maximal in vivo anti-tumour activity, and against percent of maximal ICAM-1 receptor occupancy and tumour cell PCD at corresponding antibody concentrations in vitro (FIGS. 3C, 3D, 3E, 3F and 3G). Strikingly, a near perfect correlation between antibody concentration and in vitro tumour cell receptor occupancy, in vitro tumor cell PCD, and in vivo anti-tumour activity was observed, consistent with ICAM-1 dependent direct cell cytotoxicity underlying in vivo anti-tumour activity.

human FcγRIIIa = target: T1, human FcγRIIIa (Homo sapiens, UniProt P08637); assay: Biacore binding of BI-505 isotype variants to human FcγRIIIa
T1 construct: made in house; host or cells: HEK293E (transient)
Procedure: (§1) His-tagged human FcγRIIIa or mouse FcγRIV were expressed transient in adherent HEK293E cells, purified using Ni-NTA chromatography and characterized using SDS-PAGE and/or Biacore. Surface plasmon resonance (SPR) measurements were perfomed using a Biacore 3000 instrument. Goat α-human-F(ab)′2 F(ab)′2 fragment (Jackson laboratories) was immobilised with a CM-5 chip using a standard amine coupling protocol. IgG1 B11, Iga4 B11, or 297Q B11 were diluted to 15 and 60 μg/mL respectively and added to the surface at […] for 3 min. His tagged human FcγRIIIa or mouse FcγRIV were pre-incubated with an α-HIS antibody (R&D Systems) at a 2:1 molar ratio before addition to the chip surface, […], 1 min. After each cycle the surface was regenerated twice with glycine buffer pH 1.7.

mouse FcγRIV = target: T2, mouse FcγRIV (Mus musculus, UniProt A0A0B4J1G0); assay: Biacore binding of BI-505 isotype variants to mouse FcγRIV
T2 construct: made in house; host or cells: HEK293E (transient)
T2 sequence (A0A0B4J1G0 21-249): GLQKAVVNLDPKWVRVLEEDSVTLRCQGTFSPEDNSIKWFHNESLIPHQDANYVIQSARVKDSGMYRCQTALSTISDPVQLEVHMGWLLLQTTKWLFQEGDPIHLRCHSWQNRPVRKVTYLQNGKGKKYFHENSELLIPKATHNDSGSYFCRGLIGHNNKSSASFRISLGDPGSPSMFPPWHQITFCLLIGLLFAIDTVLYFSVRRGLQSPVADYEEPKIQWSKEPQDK
Procedure: as §1

[7] = test system: B lymphoma cell line (CL-01); assay: ADCC of tumor cells with human NK effector cells; assay type: cell-based; conditions: human Natural Killer effector cells
Source text: Buffy coats from human donors (ordered through Blodcentralen, Lund) were used to isolate peripheral blood mononuclear cells (PBMCs), and subsequently NK cells. Briefly, peripheral blood components were separated using Ficoll Paque PLUS (Amersham Biosciences, Sweden) in LeucoSep tubes (Greiner Bio-One). The PBMC fraction was removed and thoroughly washed in ice-cold DPBS (Invitrogen), before magnetic labeling and separation of the NK cell population using positive or negative NK cell isolation kits and MACS LS columns (Miltenyi Biotec). The purity of the obtained NK cell fractions was analyzed using flow cytometry, after staining with α-CD56 antibodies (BD Biosciences). Target cells were harvested, and incubated in medium with or without the respective antibodies (2 μg/mL) for 60 min on ice. Cells were thereafter washed and resuspended in cold medium before dispension into FACS tubes. Subsequently, isolated NK cells were diluted in ADCC medium and dispensed together with the respective antibody-coated target cells at varying effector/target cell ratios (40:1, 20:1, 5:1 and 1:1). All experiments were performed in triplicates. After completed incubation ToPo-Pro-3 dye and counting beads (Invitrogen) were added and cells were analyzed for membrane permeabilization using flow cytometry.

T1 sequence (P08637 17-254): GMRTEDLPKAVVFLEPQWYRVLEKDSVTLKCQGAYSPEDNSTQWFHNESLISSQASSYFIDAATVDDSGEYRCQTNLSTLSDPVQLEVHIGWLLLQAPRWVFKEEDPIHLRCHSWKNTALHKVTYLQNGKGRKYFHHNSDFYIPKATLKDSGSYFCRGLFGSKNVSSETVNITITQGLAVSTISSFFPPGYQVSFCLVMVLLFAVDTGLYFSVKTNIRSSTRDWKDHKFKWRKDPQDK

Nc1cccc2c1CN(C1CCC(=O)NC1=O)C2=O (stereo not drawn) [Revlimid, Lenalidomide]
ICAM-1 expression on tumor cells collected from treated mice [1]: unchanged, high levels

CC(=O)O[C@H]1C(=O)[C@@]2(C)[C@H]([C@H](OC(=O)c3ccccc3)[C@]3(O)C[C@H](OC(=O)[C@H](O)[C@@H](NC(=O)c4ccccc4)c4ccccc4)C(C)=C1C3(C)C)[C@]1(OC(C)=O)CO[C@@H]1C[C@@H]2O [paclitaxel, reference compound]
PCD induction in normal endothelial cells [2]: induced significant endothelial cell

CC(C)C[C@H](NC(=O)[C@H](Cc1ccccc1)NC(=O)c1cnccn1)B(O)O [bortezomib, reference compound]
ICAM-1 expression on tumor cells collected from treated mice [1]: unchanged, high levels
animal survival (ARH-77 cells [3]): did not significantly enhance animal survival
time to symptomatic disease onset (ARH-77 cells [3]): insignificantly delayed disease onset

rituximab [reference compound]
tumor growth (ARH-77 cells [4]): significant anti-tumor activity albeit less efficaciously
induction of CDC [5]: effectively induced CDC
animal survival (ARH-77 tumors): incapable of reducing tumor growth or promoting animal survival
tumor growth (ARH-77 tumors): incapable of reducing tumor growth

N[C@@H](Cc1ccc(N(CCCl)CCCl)cc1)C(=O)O [AIKERAN, Melphalan]
ICAM-1 expression on tumor cells collected from treated mice [1]: unchanged, high levels

B1: IgG4: human IgG4 isotype switch variant of B11 (antibody, V domains shown)
VH: EVQLLESGGGLVQPGGSLRLSCAASGFTFSNAWMSWVRQAPGKGLEWVAFIWYDGSNKYYADSVKGRFTISRDNSKNTLYLQMNSLRAEDTAVYYCARYSGWYFDYWGQGTLVTVSS
VL: QSVLTQPPSASGTPGQRVTISCTGSSSNIGAGYDVHWYQQLPGTAPKLLIYDNNNRPSGVPDRFSGSKSGTSASLAISGLRSEDEADYYCQSYDSSLSAWLFGGGTKLTVLG
In vivo IgG Levels (serum antibody titers) [6]: 13 ± 3.1 µg/mL
binding to human FcγRIIIa (human FcγRIIIa): did not bind to human FcγRIIIa
binding to murine FcγRIV (mouse FcγRIV): but not IgG4 or N297Q-mutant, showed strong binding
ADCC of target tumor cells [7]: did not mediate ADCC

B2: N297Q-mutant: FcγR-binding deficient mutant IgG1 isotype switch variant of B11 (antibody, V domains shown)
VH: EVQLLESGGGLVQPGGSLRLSCAASGFTFSNAWMSWVRQAPGKGLEWVAFIWYDGSNKYYADSVKGRFTISRDNSKNTLYLQMNSLRAEDTAVYYCARYSGWYFDYWGQGTLVTVSS
VL: QSVLTQPPSASGTPGQRVTISCTGSSSNIGAGYDVHWYQQLPGTAPKLLIYDNNNRPSGVPDRFSGSKSGTSASLAISGLRSEDEADYYCQSYDSSLSAWLFGGGTKLTVLG
In vivo IgG Levels (serum antibody titers) [6]: 9.6 ± 3. μg/mL
binding to human FcγRIIIa (human FcγRIIIa): did not bind to human FcγRIIIa
binding to murine FcγRIV (mouse FcγRIV): but not IgG4 or N297Q-mutant, showed strong binding
ADCC of target tumor cells [7]: did not mediate ADCC
